In patent US12502440B2, “Cross-linking compounds and methods of use thereof” (North Carolina State University, priority 2019, dated 2025):

Target: T1, β-glucosidase from Agrobacterium (Agrobacterium sp., UniProt P12614)
T1 construct: purchased Megazyme
T1 sequence (P12614 1-459): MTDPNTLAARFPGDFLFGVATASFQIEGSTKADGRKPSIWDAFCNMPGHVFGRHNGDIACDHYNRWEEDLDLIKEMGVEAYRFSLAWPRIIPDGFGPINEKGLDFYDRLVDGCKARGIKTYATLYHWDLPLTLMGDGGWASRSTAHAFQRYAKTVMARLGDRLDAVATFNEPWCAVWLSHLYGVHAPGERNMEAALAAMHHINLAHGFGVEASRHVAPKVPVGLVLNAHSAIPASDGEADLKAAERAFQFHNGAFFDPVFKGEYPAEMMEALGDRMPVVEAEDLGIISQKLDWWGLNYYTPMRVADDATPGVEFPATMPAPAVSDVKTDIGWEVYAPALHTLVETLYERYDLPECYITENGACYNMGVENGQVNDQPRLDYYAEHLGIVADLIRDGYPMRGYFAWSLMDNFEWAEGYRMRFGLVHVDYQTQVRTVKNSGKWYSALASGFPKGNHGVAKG
Assay: Oligomerization of bis(indoxyl-glucoside) 46 with β-glucosidase from Agrobacterium
Assay type: biochemical
Settings: precipitate from 300 μM of 46 suspended in H2O
Protocol: Oligomerization of 46 was carried out by treatment with β-glucosidase from Agrobacterium (200 nM) in 10 mM phosphate buffer (pH 7) at 37° C. for 2-4 h (Scheme 9). Precipitation occurred during the reaction. After centrifugation, the precipitate was separated from the supernatant, washed with H2O, and dried to afford a blue solid.
The efficacy of the indigogenic oligomerization was examined under a variety of conditions. As shown in entries 1˜4 in Table 2, the yield of indigoid dye in the supernatant versus precipitate reversed as the concentration of 46 was decreased from 300 to 10 μM, although the total yields were in the range 17-29%. While the reactions in entries 1˜4 were carried out in phosphate buffer containing NaCl (0.05 M), those of entries 5 and 6 (with 300 and 50 μM of 46, respectively) were conducted in NaCl-free phosphate buffer. The use of NaCl-free phosphate buffer facilitated extraction of the indigoid dye in the supernatant for analysis.
The time course of the oligomerization was examined under the reaction conditions listed in entry 5 of Table 2, with 300 μM of 46. Noticeable changes include observation of blue clouding and color deepening at 20 min. Centrifugation enabled isolation of the precipitate. […] The absorption spectrum of the precipitate was examined in DMF/DMSO (9:1) and compared with that of the extracted supernatant (in DMF) and 43 (in DMF) (FIG. 10D). […]

O=S(=O)([O-])CCC[N+]1(CCCO)CCN(c2nc(OCCOCCOCCOc3c(Br)cc4[nH]cc(O[C@@H]5O[C@H](CO)[C@@H](O)[C@H](O)[C@H]5O)c4c3Br)nc(OCCOCCOCCOc3c(Br)cc4[nH]cc(O[C@@H]5O[C@H](CO)[C@@H](O)[C@H](O)[C@H]5O)c4c3Br)n2)CC1 [compound 46]
particle size of precipitate by DLS (number mean): ~680 nm
